According to PubChem BioAssay AID489023 (Sanford-Burnham Center for Chemical Genomics, 2010):
Calls of active or inactive are those of the source. The rule behind the calls is not given here.

The molecules below were run on 697B cells, BCR-induced NF-kB luciferase reporter luminescence (assay: B-cell receptor NF-kB reporter inhibition – 697B cells, luciferase luminescence, dose response (AID 489023)).
`COc1cc(OC)cc(-c2cc3nc(C)c(CCC(=O)Nc4nc(C)cs4)c(C)n3n2)c1` was tested, and the IC50 was 13.2 µM.
With `COC(=O)c1c(NC(=O)c2cccc([N+](=O)[O-])c2)sc(C(N)=O)c1C` the IC50 was 45.6 µM (inactive).
For `C=C1C(=O)[C@@]23C[C@H]4[C@@H]5[C@@]6(C)CCC[C@@]57[C@@H]2[C@@H](O)[C@@H]1C[C@H]3[C@H]7N4C6`, the IC50 was 2.89 µM.
For `Cc1nc2cc(-c3ccccc3)nn2c(C)c1CCC(=O)NCc1ccco1`, the IC50 was > 80 µM (inactive).
`COc1cc(Br)c(C(=O)c2nccc3cc(OC)c(OC)cc23)cc1OC` was tested, and the IC50 was > 80 µM (inactive).
Work on `CCOc1ccc(-c2nnc(SCC(=O)Nc3cc(C)on3)o2)cc1` yielded an IC50 of 12 µM.
For `Cc1ccccc1Nc1nc(Cl)c(C=O)s1`, the IC50 was > 80 µM (inactive).
Work on `O=[N+]([O-])c1ccc(Sc2cc[n+]([O-])c3ccccc23)c([N+](=O)[O-])c1` yielded an IC50 of 0.59 µM.
For `CSC1CCCCC1(O)CSc1nc2c(cc1C#N)CCCC2` (stereo not given), the IC50 was > 80 µM (inactive).
For `CCOC(=O)N1CCN(CC(=O)Nc2ccc([N+](=O)[O-])cc2C(=O)Nc2ccccc2F)CC1`, the IC50 was 29.1 µM (inactive).
For `Cc1cc(OCC(=O)N2CCC(C(N)=O)CC2)c2c3c(c(=O)oc2c1)CCCC3`, the IC50 was > 80 µM (inactive).
Molecule `Cn1nnnc1Sc1ncnc2scc(Br)c12` has an IC50 of 0.67 µM.
For `CCN1C(=O)c2cccc3c(NC(=O)c4cccc(N5C(=O)CCC5=O)c4)ccc1c23`, the IC50 was > 80 µM (inactive).
With `COc1ccc(S(=O)(=O)Nc2cc3c(C(C)=O)c(C)oc3c3ccccc23)cc1` the IC50 was > 80 µM (inactive).
In the case of `Cc1ccc(C(=O)CSc2nnc(COc3ccccc3)o2)cc1`, the IC50 is reported as > 80 µM (inactive).
`O=C(CCl)Nc1ccccc1Sc1ccccc1` was tested, and the IC50 was 15.9 µM.
For `CC1(c2nnc(-c3cccc(Cl)c3)o2)CC(c2cccc(Cl)c2)=NO1` (stereo not given), the IC50 was > 80 µM (inactive).
`Cn1c(=O)n(C)c2cc(/C=C3/NC(=O)N(Cc4ccccc4)C3=O)ccc21` was tested, and the IC50 was > 80 µM (inactive).
For `O=C(NNC(=O)C12CC3CC(CC(C3)C1)C2)c1cccc(O)c1`, the IC50 was 16.5 µM.
In the case of `COc1ccc(C2=NCc3nnc(C)n3-c3ccc(Cl)cc32)cc1Cl`, the IC50 is reported as 43.6 µM (inactive).
With `Cc1cc(OC(=O)c2ccccc2Cl)cc(=O)n1C` the IC50 was > 80 µM (inactive).
For `COc1cc(-c2[nH]nc3c2C(c2ccco2)C(C#N)=C(N)O3)cc(OC)c1OC` (stereo not given), the IC50 was > 80 µM (inactive).
`CCN1C(=O)c2cccc3c(S(=O)(=O)Nc4ccccc4)ccc1c23` was tested, and the IC50 was 40.4 µM (inactive).
For `Cc1csc(NC(=O)CCc2c(C)nc3cc(-c4ccc(Cl)cc4)nn3c2C)n1`, the IC50 was 4.77 µM.
With `CCOc1ccc(-c2nc(CSCC(=O)NCc3ccco3)c(C)o2)cc1` the IC50 was 0.32 µM.
For `CC1(C)CC2CC(C)(CN2S(=O)(=O)c2ccc(C(=O)Nc3ccc(S(=O)(=O)N4CCOCC4)cc3)cc2)C1` (stereo not given), the IC50 was > 80 µM (inactive).
With `CCc1ccc(/C=C2\SC(=S)N(CCC(=O)NC3=NCCS3)C2=O)cc1` the IC50 was 12.4 µM.
In the case of `CC(C)(C)c1ccc(-c2noc(CCC(=O)N3CCOCC3)n2)cc1`, the IC50 is reported as 51.6 µM (inactive).
For `CCOc1ccc(-c2nc(CSCC(=O)NC3CC3)c(C)o2)cc1`, the IC50 was 0.28 µM.
For `C=CCn1c(O)c(C(CC)=NC(C)c2ccccc2)c(=O)[nH]c1=O` (stereo not given), the IC50 was 56.4 µM (inactive).
With `Cc1cc(OCC(=O)Nc2ccc(CCO)cc2)c2c(C)c(C)c(=O)oc2c1` the IC50 was > 80 µM (inactive).
In the case of `N=c1ccn(Cc2ccccc2Cl)cc1`, the IC50 is reported as > 80 µM (inactive).
`COc1ccc(NS(=O)(=O)c2ccc(-c3coc(C)n3)cc2)cc1OC` was tested, and the IC50 was > 80 µM (inactive).
`CC(C)(C)c1ccc(-c2noc(CCC(N)=O)n2)cc1` was tested, and the IC50 was less than 0.16 µM.
In the case of `COc1cc(C[C@@H]2C(=O)OC[C@H]2Cc2ccc(OC)c(OC)c2)ccc1O`, the IC50 is reported as > 80 µM (inactive).
With `CCSc1ncc(Cl)c(C(=O)Nc2sc3c(c2C(=O)NCc2cccnc2)CCCC3)n1` the IC50 was > 80 µM (inactive).
With `COC(=O)C(C)Oc1cc(C)cc2oc(=O)c3c(c12)CCC3` (stereo not given) the IC50 was 58 µM (inactive).
With `CCn1c(=O)cc(SCC(=O)N2CCOCC2)c2ccccc21` the IC50 was > 80 µM (inactive).
In the case of `CC1CCN(C(=O)CCCOc2cc(=O)n(C)c3ccccc23)CC1`, the IC50 is reported as > 80 µM (inactive).
In the case of `CCn1c(=S)[nH]c2cc(S(=O)(=O)N3CCCCC3)ccc21`, the IC50 is reported as 31 µM (inactive).
For `CCCNC(=O)c1ccc(N2CCC3(CC2)CC(c2cccc(Br)c2)=NO3)c(NC(=O)c2ccc(Cl)c([N+](=O)[O-])c2)c1`, the IC50 was > 80 µM (inactive).
In the case of `CC(=O)Nc1ccc(Nc2nc(-c3sc(NC(C)=O)nc3C)cs2)cc1`, the IC50 is reported as 2.12 µM.
For `CCN(CC)C(=O)c1ccc(S(=O)(=O)Cc2ccc(C)cc2)c([N+](=O)[O-])c1`, the IC50 was 3.55 µM.
`Cc1cc(=O)[nH]c2c(C)cc(S(=O)(=O)N3CCCCC3)cc12` was tested, and the IC50 was > 80 µM (inactive).
Work on `N=c1ccn2c(n1)OC1C(O)C(CO)OC12` (stereo not given) yielded an IC50 of less than 0.16 µM.
`ClCc1nnc(-c2ccccc2)o1` showed an IC50 of 12.7 µM.
`CCOc1cc2nc(-c3ccc(OC)c(OC)c3)nc(N3CCOCC3)c2cc1OC` was tested, and the IC50 was 4.94 µM.
`COc1cc(NC(=O)c2cc3c(C)nc4ccccc4c3o2)cc(OC)c1OC` was tested, and the IC50 was 14.1 µM.
`Cc1nc2cc(-c3cccc(F)c3)nn2c(C)c1CCC(=O)N1CCC2(CC1)OCCO2` was tested, and the IC50 was 49.5 µM (inactive).
`CCN1C(=O)Nc2cccc3cccc1c23` was tested, and the IC50 was 35.2 µM (inactive).
`CCOc1ccc(/C=C2\SC(=S)N(CCC(=O)Nc3cccc(C(=O)O)c3)C2=O)cc1` was tested, and the IC50 was 8.87 µM.
`COc1ccc(-n2nnnc2S(=O)(=O)CC(=O)N2CCCCC2)cc1` was tested, and the IC50 was 0.79 µM.
With `CCC(=O)N1c2ccccc2C(N(C(C)=O)c2ccccc2)CC1C` (stereo not given) the IC50 was 61 µM (inactive).
With `CCN1C(=O)c2cccc3c(S(=O)(=O)Nc4ccccn4)ccc1c23` the IC50 was 25.2 µM (inactive).
With `Cc1ccc(C(=O)NNC(=O)CCCN2C(=O)/C(=C/c3ccccc3Cl)SC2=S)cc1` the IC50 was 22 µM (inactive).
With `COc1ccc(C(=O)N/N=C/c2sc(N3CCOCC3)nc2-c2ccccc2)cc1OC` the IC50 was 14.4 µM.
In the case of `O=C1CCCc2c1[nH]c1ccc(CN3CCCCC3)cc21`, the IC50 is reported as > 80 µM (inactive).
Work on `CCOC(=O)/C=C(\C)Sc1cc(=O)oc2ccccc12` yielded an IC50 of 1.61 µM.
With `COc1cccc(/C=C2\SC(=S)N(CCCC(=O)NC3=NCCS3)C2=O)c1` the IC50 was 56.3 µM (inactive).
`O=C(CCCN1C(=O)/C(=C/c2ccccc2Cl)SC1=S)Nc1ccccn1` gave an IC50 of 3.97 µM.
With `CC(C)N1C(=O)S/C(=C/c2ccc3c(c2)n(C)c(=O)n3C)C1=O` the IC50 was > 80 µM (inactive).
`CCCC(=O)Nc1ccc(Sc2ccc([N+](=O)[O-])cc2)cc1` was tested, and the IC50 was 69.3 µM (inactive).
`COc1ccc2nc(C)cc(Sc3nc4ccccc4s3)c2c1` showed an IC50 of 1.81 µM.
For `CN(CC1CCCO1)S(=O)(=O)c1ccc(C(=O)Nc2nc3cc4c(cc3s2)OCO4)cc1` (stereo not given), the IC50 was > 80 µM (inactive).
For `Cc1ccc(/C=C2\SC(=S)N(CCCC(=O)NC3CCCC3)C2=O)cc1`, the IC50 was 1.13 µM.
With `COc1ccc(OC)c(S(=O)(=O)Nc2ccc(-c3ccc4nnc(C)n4n3)cc2)c1` the IC50 was > 80 µM (inactive).
With `NC(=S)N=Nc1c(O)n(Cc2ccccc2)c2ccccc12` the IC50 was 16.3 µM.
Work on `Cc1ccc(Nc2nc(N/N=C\c3ccc4c(c3)OCO4)nc(N3CCOCC3)n2)cc1` yielded an IC50 of 3.11 µM.
For `COc1ccc(-c2noc(N3CCC(C(=O)Nc4ccc(F)cc4F)CC3)n2)cc1`, the IC50 was > 80 µM (inactive).
Work on `COc1ccc(-c2noc(CCCC(=O)Nc3ccc(C(N)=O)cc3)n2)cc1` yielded an IC50 of 8.71 µM.
In the case of `COc1ccc(NC(=S)NCc2ccccc2)c(OC)c1`, the IC50 is reported as > 80 µM (inactive).
Molecule `Cc1ccoc1C(=O)Nc1ccc(CC(=O)O)cc1` has an IC50 of 2.09 µM.
With `Nc1ccccc1SCC(=O)Nc1nc(-c2ccccc2)cs1` the IC50 was > 80 µM (inactive).
For `C=CCOC(=O)COc1cc(C)cc2oc(=O)c3c(c12)CCC3`, the IC50 was > 80 µM (inactive).
`CCN1C(=O)c2cccc3c(S(=O)(=O)N4CCC(C)CC4)ccc1c23` was tested, and the IC50 was 49.3 µM (inactive).
For `CCN(CC)CCOC(=O)c1ccc(NC(=O)COc2cc(=O)n(CC)c3ccccc23)cc1`, the IC50 was > 80 µM (inactive).
In the case of `CC(C)[C@H](N)c1nnc(SCC(=O)c2ccc(Cl)cc2)o1`, the IC50 is reported as > 80 µM (inactive).
In the case of `Cc1ccc(-c2nn3c(C)nnc3c3ccccc23)cc1S(=O)(=O)NCCN1CCOCC1`, the IC50 is reported as 31.5 µM (inactive).
For `Cn1nc(-c2ccc(Cl)cc2)c2cc(C(=O)N3CCCC3)sc21`, the IC50 was > 80 µM (inactive).
With `Cn1c(=O)cc(OCCCC(=O)NCc2ccccn2)c2ccccc21` the IC50 was > 80 µM (inactive).
Molecule `O=C(CCl)N(c1ccc(Cl)cc1)c1c[nH]c2ccccc12` has an IC50 of 0.27 µM.
With `CCn1c(=O)cc(SCC(=O)N2CCC3(CC2)OCCO3)c2ccccc21` the IC50 was > 80 µM (inactive).
`CN1C(=O)CC(c2ccco2)Sc2ccccc21` (stereo not given) was tested, and the IC50 was > 80 µM (inactive).
With `Cc1cc(C)cc(OCc2nnc(SCC(=O)c3ccccc3)o2)c1` the IC50 was > 80 µM (inactive).
In the case of `COc1cc(C(=O)Nc2cc(C)c(OCC(=O)N3CCOCC3)c(C)c2)cc(OC)c1OC`, the IC50 is reported as > 80 µM (inactive).
`CC(=O)C1=NN(c2ccccc2)C(c2cccs2)N1c1ccc(N(C)C)cc1` (stereo not given) was tested, and the IC50 was 31.7 µM (inactive).
In the case of `CC(=O)c1cccc(S(=O)(=O)Nc2cc(C(F)(F)F)ccc2N2CCOCC2)c1`, the IC50 is reported as > 80 µM (inactive).
For `COc1ccc(-c2ccc(OC)c([C@H]3[C@H]4C=CC[C@@H](C)[C@@H]4C(=O)N3Cc3ccccc3)c2)cc1C`, the IC50 was > 80 µM (inactive).
`Cc1[nH]c2ccccc2c1C(=O)CN1C(=O)NC2(CC(C)CC(C)(C)C2)C1=O` (stereo not given) was tested, and the IC50 was 6.97 µM.
`Oc1[nH]c2ccccc2c1N=Nc1nc(Nc2ccccc2)nc(N2CCOCC2)n1` showed an IC50 of 1.36 µM.
For `COc1ccc(-c2noc(N3CCC(C(=O)Nc4cccc(OC)c4)CC3)n2)cc1`, the IC50 was > 80 µM (inactive).
With `O=C(CCl)N1CCN(S(=O)(=O)c2ccc3c(c2)CCC3)CC1` the IC50 was 5.72 µM.
For `COc1ccc(C(=O)Nc2nnc(SCC(=O)Nc3ccc(NC(C)=O)cc3)s2)c(OC)c1`, the IC50 was > 80 µM (inactive).
Work on `Cc1ccc2nc(NC(=O)CSCC(=O)OCC(=O)c3ccc(Br)cc3)sc2c1` yielded an IC50 of 3.6 µM.
For `O=C(C1CCC1)N1CCN(S(=O)(=O)c2ccc([N+](=O)[O-])cc2)CC1`, the IC50 was > 80 µM (inactive).
`COCCCn1c(=O)/c(=C\c2cccc(OC)c2OC)s/c1=C(/C#N)C(=O)Nc1ccc(C(=O)O)cc1` was tested, and the IC50 was > 80 µM (inactive).
`Cc1ccc(-c2cc(C(=O)NCCCN3CCOCC3)no2)cc1` gave an IC50 of 11.5 µM.
For `CCN(CC)c1ccc(/C=N/N=C(c2ccccc2)c2ccccc2)c(O)c1`, the IC50 was > 80 µM (inactive).
For `Cc1nn(C)c(C)c1CN(C)S(=O)(=O)c1ccc2ccccc2c1`, the IC50 was > 80 µM (inactive).
Work on `CCCN1C(=O)/C(=C/c2c(N3CCNC(=O)C3CC(=O)OCC)nc3c(C)cccn3c2=O)SC1=S` (stereo not given) yielded an IC50 of 5.89 µM.
